# Data from patent US4559323A, “A41030 Antibiotics” (Eli Lilly and Company, priority 1984, dated 1985).
# Like-named read-outs stand apart in the source and are kept apart here.
# What was measured:
# [1] = tested on: Streptococcus faecalis; assay: Agar-dilution MIC; assay type: cell-based; settings: Table 7; Streptococcus faecalis X66
# [2] = tested on: Neisseria sp.; assay: Agar-dilution MIC; assay type: cell-based; settings: Table 10
# Description: The test results are recorded in Table 10, which follows.
# [3] = tested on: Viridans streptococcus; assay: Agar-dilution MIC; assay type: cell-based; settings: Table 11
# [4] = tested on: Clostridium difficile; assay type: cell-based; settings: Table 16
# Excerpt: The A41030 antibiotic factors A, B, C, D, E, F, and G, are also active against a number of strains of Clostridium difficile, as determined by the agar-dilution method.
# [5] = tested on: Bacteroides melaninogenicus; assay: Agar-dilution MIC (anaerobes); assay type: cell-based; settings: Table 14; Bacteroides melaninogenicus 2736
# [6] = tested on: Escherichia coli; assay: Agar-dilution MIC; assay type: cell-based; settings: Table 17; 24 hours; Escherichia coli EC14
# [7] = tested on: Streptococcus sp. Group B; assay: Agar-dilution MIC; assay type: cell-based; settings: Table 18, 24 hours
# Excerpt: The in vitro activity of antibiotic A41030 factors A and B against a number of representative aerobic, gram-positive bacteria, including Streptococcus sp. Group D, has been determined using a standard agar-dilution assay.
# [8] = tested on: Haemophilus parainfluenzae; assay: Agar-dilution MIC; assay type: cell-based; settings: Table 18, 24 hours
# [9] = tested on: Staphylococcus aureus; assay: Disc-plate sensitivity procedure; assay type: cell-based; settings: Table 8
# [10] = tested on: Streptococcus pyogenes C203; assay: Disc-plate sensitivity procedure; assay type: cell-based
# [11] = tested on: Streptococcus pneumoniae Park I; assay: Disc-plate sensitivity procedure; assay type: cell-based
# [12] = mice, administered intraperitoneally
# [13] = tested on: pseudorabies; settings: in vitro at 20 mcg./ml.
# [14] = tested on: Bacteroides corrodens; assay: Agar-dilution MIC (anaerobes); assay type: cell-based; settings: Table 14; Bacteroides corrodens 1874
smiles,measurement,setting,value
NC1C(=O)NC2Cc3ccc(c(Cl)c3)Oc3cc4cc(c3O)Oc3ccc(cc3Cl)C(O)C3NC(=O)C(NC(=O)C4NC(=O)C(NC2=O)c2cc(O)cc(c2)Oc2cc1ccc2O)c1cc(Cl)c(O)c(c1)-c1c(O)cc(O)cc1C(C(=O)O)NC3=O (stereo not drawn) [A41030 factor A],MIC,[1],< 0.5 µg/mL
same,MIC,[2]; strain L. Nance,4.0 µg/mL
same,MIC,[2]; strain Mitchell,4.0 µg/mL
same,MIC,[2]; strain Sanders,1.0 µg/mL
same,MIC,[2]; strain Schultz,8.0 µg/mL
same,MIC,[2]; strain Woods,4.0 µg/mL
same,MIC,[3]; Viridans streptococcus SM-1134,0.5 µg/mL
same,MIC,[3]; Viridans streptococcus SSI-910,0.25 µg/mL
same,MIC,[3]; Viridans streptococcus SSII-895,0.25 µg/mL
same,MIC,[4]; C. difficile 78,1.0 µg/mL
same,MIC,[4]; C. difficile 107B,1.0 µg/mL
same,MIC,[4]; C. difficile 111F,1.0 µg/mL
same,MIC,[4]; C. difficile 1153,1.0 µg/mL
same,MIC,[4]; C. difficile 2634,1.0 µg/mL
same,MIC,[4]; C. difficile 3424-5B,1.0 µg/mL
same,MIC,[4]; C. difficile 3816,1.0 µg/mL
same,MIC,[4]; C. difficile 3950,1.0 µg/mL
same,MIC,[4]; C. difficile 6890,1.0 µg/mL
same,MIC,[4]; C. difficile 8484,1.0 µg/mL
same,MIC,[4]; C. difficile A-194,1.0 µg/mL
same,MIC,[4]; C. difficile A-195,1.0 µg/mL
same,MIC,[4]; C. difficile A-196,1.0 µg/mL
same,MIC,[4]; C. difficile A-279,1.0 µg/mL
same,MIC,[4]; C. difficile A-280,1.0 µg/mL
same,MIC,[4]; C. difficile A-281,1.0 µg/mL
same,MIC,[4]; C. difficile WAL-2112,1.0 µg/mL
same,MIC,[4]; C. difficile WAL-3657,1.0 µg/mL
same,MIC,[4]; C. difficile WAL-4268,1.0 µg/mL
same,MIC,[5],4 µg/mL
same,MIC,[6],128 µg/mL
same,MIC,[7]; Streptococcus sp. Group B 5,1 µg/mL
same,MIC,[7]; Streptococcus sp. Group B 14,0.06 µg/mL
same,MIC,[8]; Haemophilus parainfluenzae 7901,16 µg/mL
same,MIC,[8]; Haemophilus parainfluenzae 9796,16 µg/mL
same,Zone diameter,"[9]; S. aureus 3055 benzylpenicillin-susceptible, 10 μg./disc",17.2 mm
same,Zone diameter,"[9]; S. aureus 3055 benzylpenicillin-susceptible, 100 μg./disc",20.8 mm
same,Zone diameter,"[9]; S. aureus 3074 benzylpenicillin-resistant, 10 μg./disc",16.7 mm
same,Zone diameter,"[9]; S. aureus 3074 benzylpenicillin-resistant, 100 μg./disc",19.8 mm
same,Zone diameter,"[9]; S. aureus 3130 benzylpenicillin- and methicillin-resistant, 10 μg./disc",17.4 mm
same,Zone diameter,"[9]; S. aureus 3130 benzylpenicillin- and methicillin-resistant, 100 μg./disc",21.4 mm
same,Zone diameter,"[10]; Table 8, 10 μg./disc",12.0 mm
same,Zone diameter,"[10]; Table 8, 100 μg./disc",15.0 mm
same,Zone diameter,"[11]; Table 8, 10 μg./disc",15.0 mm
same,Zone diameter,"[11]; Table 8, 100 μg./disc",17.0 mm
same,LD50,[12],> 300 mg/kg
same,acute toxicity,[12],> 300 mg/kg
same,activity against pseudorabies,[13],shown activity
same,MIC,[14],64 µg/mL
